# According to US3936463A, “Benzomorphanes” (priority 1972, dated 1976):
# Experiments:
# [1] = test system: Morphine-dependent monkeys; test: Morphine-antagonistic action (provocation of withdrawal symptoms) in morphine-dependent monkeys; assay type: in vivo, monkey; conditions: grade, scale not defined
# Description: (§1) The numbering of the compounds is the same as the numbering of the preparative examples. […] The ED50 and LD50 were calculated relative to the base.
# rat tails = test: animal or person; conditions: for ED50: Rattus norvegicus, sc, read-out: Analgesic action in heat radiation test on rat tails, ED 50; for Therapeutic index LD 50 / ED 50 / Analgesic action in heat radiation test on rat tails, ED 50: rats, s.c.; for Therapeutic index LD 50 / ED 50: calculated from LD 50 and ED 50; for Analgesic action in heat radiation test on rat tails, ED 50: calculated relative to the base
# Description: as §1
# in vivo = conditions: rat, sc
# Description: as §1
# Morphine-dependent rats [2] = test: Morphine replacement action (elimination of withdrawal symptoms) in morphine-dependent rats; assay type: in vivo, rat; conditions: grade, scale not defined
# Description: as §1
# Morphine-dependent rats [3] = test: Morphine-antagonistic action (provocation of withdrawal symptoms) in morphine-dependent rats; assay type: in vivo, rat; conditions: grade, scale not defined
# Description: as §1
# [4] = test system: Morphine-dependent monkeys; test: Morphine-replacement action (elimination of withdrawal symptoms) in morphine-dependent monkeys; assay type: in vivo, monkey; conditions: grade, scale not defined
# Description: as §1
Structure (SMILES),Morphine-antagonistic action (provocation of withdrawal symptoms) [1],ED50 (rat tails),LD50 (in vivo),Morphine replacement action (elimination of withdrawal symptoms) (Morphine-dependent rats [2]),Therapeutic index LD 50 / ED 50 (rat tails),Morphine-antagonistic action (provocation of withdrawal symptoms) (Morphine-dependent rats [3]),"Analgesic action in heat radiation test on rat tails, ED 50 (rat tails)",Morphine-replacement action (elimination of withdrawal symptoms) [4]
"CCC12CCN(CC3CC3)C(Cc3ccc(OCC(C)COC(C)=O)cc31)C2C (stereo not drawn) [Example 6a, 2-Cyclopropylmethyl-5-ethyl-9-methyl-2'-[3-acetoxyisobutoxy-(1)]-6,7-benzomorphan]",3,0.42 mg/kg,,,,,,
"CCC12CCN(CC3CC3)C(Cc3ccc(OCCCOC(=O)C(C)C)cc31)C2C (stereo not drawn) [Example 2b, 2-Cyclopropylmethyl-5-ethyl-9-methyl-2'-[3-isobutyryloxy-propoxy-(1)]-6,7-benzomorphan]",,1 mg/kg,~300 mg/kg,0,~ 300,1,,
"CCC12CCN(CC3CC3)C(Cc3ccc(OCCCOC(=O)C(C)(C)C)cc31)C2C (stereo not drawn) [Example 4a, 2-Cyclopropylmethyl-5-ethyl-9-methyl-2'-[3-pivaloyloxy-propoxy-(1)]-6,7-benzomorphan]",,0.97 mg/kg,> 500 mg/kg,0,> 515,1,,
"CCC12CCN(CC3CC3)C(Cc3ccc(OCCCCOC(C)=O)cc31)C2C (stereo not drawn) [Example 9, 2-Cyclopropylmethyl-5-ethyl-9-methyl-2'-[4-acetoxybutoxy-(1)]-6,7-benzomorphan]",,0.61 mg/kg,> 500 mg/kg,0-1,> 820,1,,
"CCC12CCN(CC3CC3)C(Cc3ccc(OCCCCOC(=O)C(C)C)cc31)C2C (stereo not drawn) [Example 10b, 2-Cyclopropylmethyl-5-ethyl-9-methyl-2'-[4-isobutyryloxybutoxy-(1)]-6,7-benzomorphan]",,0.42 mg/kg,> 500 mg/kg,0,"> 1,190",1,,
"CCC12CCN(CC3CC3)C(Cc3ccc(OCCCOC(=O)COc4ccccc4)cc31)C2C (stereo not drawn) [Example 21a, 2-Cyclopropylmethyl-5-ethyl-9-methyl-2'-[3-phenoxyacetoxypropoxy-(1)]-6,7-benzomorphan]",2,1.2 mg/kg,,,,,,
"CCOC(=O)N(C)C(=O)OCCCOc1ccc2c(c1)C1(CC)CCN(CC3CC3)C(C2)C1C (stereo not drawn) [Example 23, 2-cyclopropylmethyl-5-ethyl-9-methyl-2'-[3-N-ethoxycarbonyl-N-methyl-carbamoyloxypropoxy-(1)]-6,7-benzomorphan]",2,1.2 mg/kg,,,,,,
CCC(=O)OCCC(C)COc1ccc2c(c1)C1(CC)CCN(CC3CC3)C(C2)C1C (stereo not drawn) [Example 18],2,,,,,,1.36 mg/kg,
"CN1CC[C@]23c4c5ccc(O)c4O[C@H]2[C@@H](O)C=C[C@H]3[C@H]1C5 [Morphine, reference compound]",,,,,,,1.78 mg/kg,
CCC12CCN(CC3CC3)C(Cc3ccc(OCCCOC(=O)c4cccnc4)cc31)C2C (stereo not drawn) [Example 20],1,1.2 mg/kg,,,,,,
"C/C=C/C(=O)OCC(C)COc1ccc2c(c1)C1(CC)CCN(CC3CC3)C(C2)C1C (stereo not drawn) [Example 6b, 2-Cyclopropylmethyl-5-ethyl-9-methyl-2'-[3-crotonoyloxyisobutoxy-(1)]-6,7-benzomorphan]",3,0.31 mg/kg,,,,,,
"COc1ccc2c3c1O[C@H]1[C@@H](O)C=C[C@H]4[C@@H](C2)N(C)CC[C@@]341 [Codeine, reference compound]",,4.5 mg/kg,202 mg/kg,3,51,0,,3
"CCC12CCN(CC3CC3)C(Cc3ccc(OC(C)(C)COC(C)=O)cc31)C2C (stereo not drawn) [Example 11, 2-Cyclopropylmethyl-5-ethyl-9-methyl-[1-acetoxy-2-methyl-propoxy-(2)]-6,7-benzomorphan]",1,0.47 mg/kg,,,,,,
CCC(=O)OCCCCOc1ccc2c(c1)C1(CC)CCN(CC3CC3)C(C2)C1C (stereo not drawn) [Example 10a],,0.62 mg/kg,> 500 mg/kg,0,> 806,2,,
"CCOC(=O)C1(c2ccccc2)CCN(C)CC1 [Pethidine, reference compound]",,5.7 mg/kg,113 mg/kg,,20,,,
"CCC12CCN(CC3CC3)C(Cc3ccc(OCCCOC(C)=O)cc31)C2C (stereo not drawn) [Example 1, 2-Cyclopropylmethyl-5-ethyl-9-methyl-2'-[3-acetoxypropoxy-(1)]-6,7-benzomorphan]",1-2,0.42 mg/kg,352 mg/kg,0,838,2,,0
"CCC12CCN(CC3CC3)C(Cc3ccc(OCC(C)CCOC(C)=O)cc31)C2C (stereo not drawn) [Example 17, 2-Cyclopropylmethyl-5-ethyl-9-methyl-2'-[4-acetoxy-2-methylbutoxy-(1)]-6,7-benzomorphan]",2,,,,,,0.96 mg/kg,
"CCC(=O)OCCCOc1ccc2c(c1)C1(C)CCN(CC3CC3)C(C2)C1C (stereo not drawn) [Example 8, 2-Cyclopropylmethyl-5-9-dimethyl-2'-[3-propionyloxypropoxy-(1)]-6,7-benzomorphan]",,1.6 mg/kg,~425 mg/kg,1,~ 262,1,,
"CCC12CCN(CC3CC3)C(Cc3ccc(OCCCOC(=O)c4ccccc4)cc31)C2C (stereo not drawn) [Example 4e, 2-Cyclopropylmethyl-5-ethyl-9-methyl-2'-[3-benzoyloxy-propoxy-(1)]-6,7-benzomorphan]",2,0.42 mg/kg,,,,,,
"CCC(=O)OCCCOc1ccc2c(c1)C1(CC)CCN(CC3CC3)C(C2)C1C (stereo not drawn) [Example 2a, 2-Cyclopropylmethyl-5-ethyl-9-methyl-2'-[3-propionyloxy-propoxy-(1)]-6,7-benzomorphan]",2,0.49 mg/kg,296 mg/kg,0,604,2,,0
"CC(=O)OCCCOc1ccc2c(c1)C1(C)CCN(CC3CC3)C(C2)C1C (stereo not drawn) [Example 7, 2-Cyclopropylmethyl-5,9-dimethyl-2'-[3-acetoxypropoxy-(1)]-6,7-benzomorphan]",,1.6 mg/kg,~400 mg/kg,0,~ 258,1,,
"C/C=C/C(=O)OCCCOc1ccc2c(c1)C1(CC)CCN(CC3CC3)C(C2)C1C (stereo not drawn) [Example 4d, 2-Cyclopropylmethyl-5-ethyl-9-methyl-2'-[3-crotonoyloxy-propoxy-(1)]-6,7-benzomorphan]",3,0.35 mg/kg,,0,,2,,
"CC(C)=CCN1CCC2(C)c3cc(O)ccc3CC1C2C (stereo not drawn) [Pentazocine, reference compound]",2,4.8 mg/kg,140 mg/kg,1,29,2,,
